Results as given in PubChem BioAssay AID330 (DTP/NCI, 2004).
“And” between values parts separate entries of the source, which are not always exact repeats. Identical values can stand only once. Toxic doses and inconclusive results are not listed. Rule for the calls: active = survival T/C of 150% or more; inactive = T/C below 125% in these data.

Test system: P388 leukemia ip, CD2F1 mice, survival T/C
Assay: NCI In Vivo Anticancer Drug Screen. Data for tumor model P388 Leukemia (intraperitoneal) in CD2F1 (CDF1) mice
Details: endpoint: median survival time, higher = longer survival
Method in brief: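 Mice carrying the transplanted tumor received test compound or vehicle. Survival was recorded in each group, and the value is the treated-group measurement divided by that of the vehicle-treated control group.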

[1] = dose: 60.0 mg/kg/injection, schedule: Q01DX005 (ip), vehicle: Klucel (hydroxypropylcellulose) (HPC)
[2] = dose: 120.0 mg/kg/injection, schedule: Q01DX005 (ip), vehicle: Klucel (hydroxypropylcellulose) (HPC)
[3] = dose: 240.0 mg/kg/injection, schedule: Q01DX005 (ip), vehicle: Klucel (hydroxypropylcellulose) (HPC)
[4] = dose: 50.0 mg/kg/injection, schedule: Q01DX005 (ip), vehicle: Klucel (hydroxypropylcellulose) (HPC)
[5] = dose: 100.0 mg/kg/injection, schedule: Q01DX005 (ip), vehicle: Klucel (hydroxypropylcellulose) (HPC)
[6] = dose: 200.0 mg/kg/injection, schedule: Q01DX005 (ip), vehicle: Klucel (hydroxypropylcellulose) (HPC)
[7] = dose: 50.0 mg/kg/injection, schedule: Q01DX005 (ip), vehicle: saline with Tween-80
[8] = dose: 100.0 mg/kg/injection, schedule: Q01DX005 (ip), vehicle: saline with Tween-80
[9] = dose: 200.0 mg/kg/injection, schedule: Q01DX005 (ip), vehicle: saline with Tween-80
[10] = dose: 50.0 mg/kg/injection, schedule: Q01DX009 (ip), vehicle: saline
[11] = dose: 100.0 mg/kg/injection, schedule: Q01DX009 (ip), vehicle: saline
[12] = dose: 100.0 mg/kg/injection, schedule: Q01DX001 (ip), vehicle: saline with Tween-80
[13] = dose: 200.0 mg/kg/injection, schedule: Q01DX001 (ip), vehicle: saline with Tween-80
[14] = dose: 400.0 mg/kg/injection, schedule: Q01DX001 (ip), vehicle: saline with Tween-80
[15] = dose: 50.0 mg/kg/injection, schedule: Q01DX009 (ip), vehicle: saline with Tween-80
[16] = dose: 100.0 mg/kg/injection, schedule: Q01DX009 (ip), vehicle: saline with Tween-80

Measured: T/C

Cc1c(C)c(C)c(C(=O)c2ccccc2C(=O)NCCSC(C)(C)C)c(C)c1C
inactive: dose: 30.0 mg/kg/injection, schedule: Q01DX005 (ip), vehicle: Klucel (hydroxypropylcellulose) (HPC) 98 % of control | [1] 93 % of control and 96 % of control | [2] 92 % of control | [3] 87 % of control

COc1ccc(CCN2C=CC(C#N)C=C2)cc1OC
inactive: [4] 91 % of control | [5] 101 % of control | [6] 98 % of control

O=C(O)CCCCOc1ccc(N(CCCl)CCCl)cc1
inactive: dose: 100.0 mg/kg/injection, schedule: Q01DX001 (ip), vehicle: Klucel (hydroxypropylcellulose) (HPC) 123 % of control

O=C(Nc1ccccc1)C1(C(=O)Nc2ccccc2)SSC(C(=O)Nc2ccccc2)(C(=O)Nc2ccccc2)SS1
inactive: [7] 107 % of control | [8] 96 % of control | [9] 89 % of control

C=C(Cl)C(=NC(C)(C)C)Nc1cccc(Cl)c1
inactive: dose: 6.25 mg/kg/injection, schedule: Q01DX005 (ip), vehicle: Klucel (hydroxypropylcellulose) (HPC) 112 % of control | dose: 12.5 mg/kg/injection, schedule: Q01DX005 (ip), vehicle: Klucel (hydroxypropylcellulose) (HPC) 114 % of control | dose: 25.0 mg/kg/injection, schedule: Q01DX005 (ip), vehicle: Klucel (hydroxypropylcellulose) (HPC) 112 % of control | [4] 105 % of control | [5] 115 % of control | [6] 118 % of control

Clc1ccc(CSc2nnc3c(n2)[nH]c2ccccc23)cc1
inactive: [4] 100 % of control | [5] 107 % of control | [6] 98 % of control

O=[N+]([O-])c1ccc(Nc2cn[nH]n2)cc1
inactive: [1] 100 % of control | [2] 102 % of control | [3] 99 % of control

[Be]=[Se]
inactive: dose: 7.5 mg/kg/injection, schedule: Q01DX005 (ip), vehicle: other 97 % of control | dose: 15.0 mg/kg/injection, schedule: Q01DX005 (ip), vehicle: other 103 % of control and 108 % of control

CCCCCCCC[N+]1([O-])CCCCC1
inactive: [10] 97 % of control | [11] 102 % of control

Cc1ccc(C(O)(c2ccc(C)cc2)C2(O)CCCCC2)cc1
inactive: [7] 109 % of control | [8] 100 % of control | [9] 101 % of control

CNC(C)C(O)c1ccc(O)cc1 (centres undefined)
inactive: [10] 102 % of control and 92 % of control | [11] 102 % of control and 105 % of control | dose: 200.0 mg/kg/injection, schedule: Q01DX009 (ip), vehicle: saline 102 % of control and 108 % of control | dose: 400.0 mg/kg/injection, schedule: Q01DX009 (ip), vehicle: saline 102 % of control and 98 % of control

Cc1ccccc1NP1(=O)OCCCN1Cc1ccccc1Cl (centres undefined)
inactive: [7] 99 % of control | [8] 93 % of control | [9] 93 % of control

O=C1c2cccc3cc([N+](=O)[O-])cc(c23)C(=O)N1CCCN(CCO)CCO
inactive: dose: 25.0 mg/kg/injection, schedule: Q01DX005 (ip), vehicle: saline with Tween-80 105 % of control | [7] 107 % of control | [8] 108 % of control and 121 % of control

Cc1c(N=Nc2ccccc2C(F)(F)F)c(-c2ccccc2)nn1C(=S)S
inactive: [12] 89 % of control | [13] 90 % of control | [14] 101 % of control

C=C1C(=O)C23C(OC(=O)/C=C/C)C1CCC2C12COC3(O)C(O)C1C(C)(C)CCC2O (centres undefined)
inactive: dose: 3.75 mg/kg/injection, schedule: Q01DX009 (ip), vehicle: saline with Tween-80 103 % of control | dose: 7.5 mg/kg/injection, schedule: Q01DX009 (ip), vehicle: saline with Tween-80 108 % of control | dose: 15.0 mg/kg/injection, schedule: Q01DX009 (ip), vehicle: saline with Tween-80 112 % of control

Cc1cc(=O)oc2ccc(C(=O)/C=C/N(C)C)c(O)c12
inactive: dose: 60.0 mg/kg/injection, schedule: Q01DX005 (ip), vehicle: saline with Tween-80 96 % of control | dose: 120.0 mg/kg/injection, schedule: Q01DX005 (ip), vehicle: saline with Tween-80 92 % of control | dose: 240.0 mg/kg/injection, schedule: Q01DX005 (ip), vehicle: saline with Tween-80 89 % of control

COc1cc2ccc3c[n+](C)ccc3c2cc1OC
inactive: dose: 6.25 mg/kg/injection, schedule: Q01DX009 (ip), vehicle: water 101 % of control and 103 % of control | dose: 12.5 mg/kg/injection, schedule: Q01DX009 (ip), vehicle: other 107 % of control | dose: 12.5 mg/kg/injection, schedule: Q01DX009 (ip), vehicle: water 114 % of control | dose: 25.0 mg/kg/injection, schedule: Q01DX009 (ip), vehicle: other 119 % of control | dose: 25.0 mg/kg/injection, schedule: Q01DX009 (ip), vehicle: water 116 % of control and 122 % of control | dose: 100.0 mg/kg/injection, schedule: Q01DX009 (ip), vehicle: water 108 % of control

COC(=O)C1=NOC2C(=O)N(c3ccccc3)C(=O)C12 (centres undefined)
inactive: [7] 96 % of control | [8] 101 % of control

COCC1(C)CCCC2(C)C1CCC13CCC(OC(C)=O)CC12O3 (centres undefined)
inactive: dose: 100.0 mg/kg/injection, schedule: Q01DX001 (ip), vehicle: saline 102 % of control | dose: 200.0 mg/kg/injection, schedule: Q01DX001 (ip), vehicle: saline 108 % of control | dose: 400.0 mg/kg/injection, schedule: Q01DX001 (ip), vehicle: saline 110 % of control

N/C(=N\S(=O)(=O)c1cc(C(F)(F)F)cc(C(F)(F)F)c1)c1ccncc1
inactive: [15] 86 % of control | [16] 90 % of control

O=C(O)Cc1cc(Cl)ccc1C(=O)O
inactive: [7] 97 % of control | [8] 97 % of control | [9] 97 % of control

CCCCCCCC#CC(=O)O
inactive: [15] 88 % of control | [16] 89 % of control | dose: 200.0 mg/kg/injection, schedule: Q01DX009 (ip), vehicle: saline with Tween-80 86 % of control

CN(C)c1ccc(N=Nc2ccc3cc4ccccc4cc3c2)cc1
inactive: dose: 25.0 mg/kg/injection, schedule: Q04DX003 (ip), vehicle: saline with Tween-80 101 % of control | dose: 50.0 mg/kg/injection, schedule: Q04DX003 (ip), vehicle: saline with Tween-80 105 % of control

CC1(C)CC(NCCN)=CC(=S)N1
inactive: [4] 98 % of control | [5] 98 % of control | [6] 104 % of control

CO[C@@H]1[C@@H](O)c2ccccc2N1C(C)=O
inactive: dose: 60.0 mg/kg/injection, schedule: Q01DX005 (ip), vehicle: saline 104 % of control | dose: 120.0 mg/kg/injection, schedule: Q01DX005 (ip), vehicle: saline 102 % of control | dose: 240.0 mg/kg/injection, schedule: Q01DX005 (ip), vehicle: saline 104 % of control

COC(=O)Cn1/c(=N\N=C\c2ccc(OC)cc2)sc2ccccc21
inactive: [12] 101 % of control | [13] 101 % of control | [14] 92 % of control

C=C1C(=O)OC2CC1CCC1(C)OC1CCC(C)=CCCC2(C)O (centres undefined)
inactive: dose: 7.5 mg/kg/injection, schedule: Q01DX009 (ip), vehicle: Klucel (hydroxypropylcellulose) (HPC) 100 % of control and 101 % of control | dose: 15.0 mg/kg/injection, schedule: Q01DX009 (ip), vehicle: Klucel (hydroxypropylcellulose) (HPC) 107 % of control and 119 % of control | dose: 30.0 mg/kg/injection, schedule: Q01DX009 (ip), vehicle: Klucel (hydroxypropylcellulose) (HPC) 107 % of control and 108 % of control | dose: 60.0 mg/kg/injection, schedule: Q01DX009 (ip), vehicle: Klucel (hydroxypropylcellulose) (HPC) 108 % of control

CCCCCCCCCCCCCCCC[N+]1([O-])CCCCCC1
inactive: [10] 93 % of control
